Earlier results on three compounds are cited in US10624856B2, “Non-extractable oral solid dosage forms” (Dharma Laboratories LLC, priority 2018, dated 2020).

The conditions of data set [1]: in vivo.

In the case of `Oc1ccc2c3c1O[C@H]1[C@H](O)CC[C@@]4(O)[C@@H](C2)N(CC2CC2)CC[C@]314` [6-beta-naltrexol], the half-life in data set [1] is 16 h.
Turning to `C=CCN1CC[C@]23c4c5ccc(O)c4O[C@H]2C(=O)CC[C@@]3(O)[C@H]1C5` [Naloxone], in data set [1] (po), the “oral bioavailability (in words)” value is on record as “low”.
For `O=C1CC[C@@]2(O)[C@H]3Cc4ccc(O)c5c4[C@@]2(CCN3CC2CC2)[C@H]1O5` [Naltrexone], the Plasma protein binding was 21%.

Broadly, the half-life is the time in which the quantity being followed falls by half.
